Structures are written as SMILES. pIC50: −log10 of the molar value. Read-outs that look alike come from different tables or passages of the source.

A word on the pIC50: it is the negative decadic logarithm of the IC50, by convention in mol/L. The term IC50 denotes the point on the concentration scale where inhibition reaches its midpoint.

The target in experiment [1] is menin protein (Homo sapiens (Human), UniProt O00255). In words: biochemical. It is filed as binding. The conditions noted are these: FP competitive binding; menin protein 4 nM, FAM-MM2 probe 2 nM; read-out: Menin Binding Affinity IC50. In outline: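 Test compounds displaced FAM-MM2 (2 nM) from 4 nM menin after 30 min equilibration at room temperature in PBS buffer containing bovine γ-globulin, 4% DMSO and Triton X-100. Binding was followed by fluorescence polarization. Competition curves were fitted by nonlinear regression to give IC50 and Ki.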

A short description of experiment [2]: Cell growth inhibition, CellTiter-Glo Luminescent Cell Viability Assay. It is filed as cell-based. As to the method:
Cell growth inhibitory activity of representative menin inhibitors was determined using CellTiter-Glo® Luminescent Cell Viability Assay. Cells were seeded in 384-well white opaque cell culture plates at a density of 2,000 cells/well with serially diluted compounds and incubated at 37° C. in an atmosphere of 95% air and 5% CO2 for 4 days. Cell viability was determined using the CellTiter-Glo® Luminescent Cell Viability Assay Kit (Promega, Madison, Wis.) according to the manufacture's instruction. Briefly, a volume of CellTiter-Glo® Reagent equal to the volume of cell culture medium was added to each well, and then the plates were incubated at room temperature for 10-20 minutes. The luminescent signal was measured using a Tecan Infinite M1000 multimode microplate reader (Tecan, Morrisville, N.C.). The half maximal inhibitory concentration (IC50) was calculated using the GraphPad Prism 5 software (GraphPad Software, La Jolla, Calif.).
(ATP-based viability assays read luminescence as a measure of living cells.)

[3] abbreviates: MOLM-13, 96 h, read-out: Cell Growth Inhibition IC50 (μM) MOLM13, MOLM13 cells, 4 days, CellTiter-Glo.
The mark [4] stands for this setting: MV4-11, 96 h, read-out: Cell Growth Inhibition IC50 (μM) MV4, 11, MV4, 11 cells, 4 days, CellTiter-Glo.
[5] abbreviates: MOLM-13, 96 h, MOLM13 cells, 4 days, CellTiter-Glo, read-out: Cell Growth Inhibition IC50 (μM) MOLM13.
Setting [6] is: MV4-11, 96 h, MV4, 11 cells, 4 days, CellTiter-Glo, read-out: Cell Growth Inhibition IC50 (μM) MV4, 11.

Chain of menin protein (O00255 whole entry): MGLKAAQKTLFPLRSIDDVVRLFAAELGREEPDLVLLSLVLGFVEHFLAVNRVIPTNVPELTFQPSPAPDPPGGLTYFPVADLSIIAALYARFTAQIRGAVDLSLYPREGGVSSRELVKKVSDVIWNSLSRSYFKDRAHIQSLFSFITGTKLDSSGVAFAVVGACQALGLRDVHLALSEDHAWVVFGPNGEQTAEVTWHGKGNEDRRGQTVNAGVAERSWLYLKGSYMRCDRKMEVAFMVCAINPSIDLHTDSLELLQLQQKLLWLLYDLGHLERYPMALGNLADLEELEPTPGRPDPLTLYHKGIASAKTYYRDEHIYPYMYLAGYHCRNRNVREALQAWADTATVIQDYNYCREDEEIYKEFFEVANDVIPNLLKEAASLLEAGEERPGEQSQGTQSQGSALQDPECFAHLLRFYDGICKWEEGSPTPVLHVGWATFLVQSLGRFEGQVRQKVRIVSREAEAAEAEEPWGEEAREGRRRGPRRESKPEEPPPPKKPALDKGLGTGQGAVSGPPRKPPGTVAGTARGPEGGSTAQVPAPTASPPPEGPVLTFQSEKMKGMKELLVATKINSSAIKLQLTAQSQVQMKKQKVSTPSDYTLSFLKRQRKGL

For `CNC(=O)O[C@H]1CCC[C@@H]1C(Cn1cccc1)(c1ccccc1)C1CCN(CC2CN(c3ccc(S(=O)(=O)c4ccccc4)cc3)C2)CC1` (mixture of isomers) [compound 359, rac-(1S,2R)-2-(1-phenyl-1-(1-((1-(4-(phenylsulfonyl)phenyl)azetidin-3-yl)methyl)piperidin-4-yl)-2-(1H-pyrrol-1-yl)ethyl)cyclopentyl methylcarbamate], the pIC50 in experiment [1] was 7.92. The IC50 in experiment [2] (setting [3]) is 1.46 µM; in experiment [2] (setting [4]), 0.43 µM.

Consider `CNC(=O)O[C@H]1CCC[C@@H]1C(C#N)(c1ccccc1)C1CCN(CC2CN(c3ccc(S(=O)(=O)c4ccccc4)cc3)C2)CC1` (mixture of isomers) [compound 225, rac-(1S,2R)-2-(cyano(phenyl)(1-((1-(4-(phenylsulfonyl)phenyl)azetidin-3-yl)methyl)piperidin-4-yl)methyl)cyclopentyl methylcarbamate], for which the pIC50 in experiment [1] is 8.05. Moreover, the IC50 in experiment [2] (setting [3]) is 0.82 µM; in experiment [2] (setting [4]), 0.24 µM.

Consider `COC(=O)N[C@H]1CCC[C@@H]1C(C#N)(c1ccccc1)C1CCN(CC2CN(c3ccc(S(=O)(=O)c4ccncc4)cc3)C2)CC1` (mixture of isomers) [Cpd. No. 345, methyl (rac-(1S,2R)-2-(cyano(phenyl)(1-((1-(4-(pyridin-4-ylsulfonyl)phenyl)azetidin-3-yl)methyl)piperidin-4-yl)methyl)cyclopentyl)carbamate], for which the pIC50 in experiment [1] was 7.96. The values for the IC50 in experiment [2] (setting [3]) and in experiment [2] (setting [4]) were 0.71 µM and 0.54 µM, respectively.

With `CCN1Cc2ccccc2C(C2CCCC2)(C2CCN(CC3CN(c4ccc(S(=O)(=O)c5cnn(C)c5)cc4)C3)CC2)C1` (stereo not shown) [compound 102, 4-cyclopentyl-2-ethyl-4-(1-((1-(4-((1-methyl-1H-pyrazol-4-yl)sulfonyl)phenyl)azetidin-3-yl)methyl)piperidin-4-yl)-1,2,3,4-tetrahydroisoquinoline], the pIC50 in experiment [1] is 7.96. Moreover, the results for the IC50 in experiment [2] (setting [5]) and in experiment [2] (setting [6]) were 0.708 µM and 0.267 µM, respectively.

In the case of `CCN1Cc2ccccc2C(C2CCCC2)(C2CCN(CC3CN(c4ccc(S(=O)(=O)CC)cc4)C3)CC2)C1` (stereo not shown) [compound 136, 4-cyclopentyl-2-ethyl-4-(1-((1-(4-(ethylsulfonyl)phenyl)azetidin-3-yl)methyl)piperidin-4-yl)-1,2,3,4-tetrahydroisoquinoline], the pIC50 in experiment [1] is 8.05. Further, the IC50 in experiment [2] (setting [5]) was found to be 3.8 µM; in experiment [2] (setting [6]) it was 1.2 µM.

On to `CNC(=O)O[C@H]1CCC[C@@H]1C(C#N)(c1ccccc1)C1CCN(CC2(C)CN(c3ccc(S(=O)(=O)c4cnn(C)c4)cc3)C2)CC1` (mixture of isomers) [compound 372, rac-(1S,2R)-2-(cyano(1-((3-methyl-1-(4-((1-methyl-1H-pyrazol-4-yl)sulfonyl)phenyl)azetidin-3-yl)methyl)piperidin-4-yl)(phenyl)methyl)cyclopentyl methylcarbamate], for which the pIC50 in experiment [1] was 7.32. Besides, the values for the IC50 in experiment [2] (setting [3]) and in experiment [2] (setting [4]) were 5.01 µM and 2.03 µM, respectively.

`N#Cc1ccc(OCCCN2CCC(C3(C4CCCC4)NCCc4ccccc43)CC2)cc1` (stereo not shown) [compound 27, 4-(3-(4-(1-cyclopentyl-1,2,3,4-tetrahydroisoquinolin-1-yl)piperidin-1-yl)propoxy)benzonitrile]: the IC50 in experiment [2] (MOLM-13, 96 h, read-out: Cell Growth Inhibition IC50 (μM) MOLM13) is 3.6 µM; in experiment [2] (MV4-11, 96 h, read-out: Cell Growth Inhibition IC50 (μM) MV4, 11), 0.9 µM.

Take `COC(=O)N[C@H]1CCC[C@@H]1[C@](C#N)(c1ccccc1)C1CCN(CC2CN(c3ccc(S(=O)(=O)C(F)(F)F)cc3)C2)CC1` [Cpd. No. 403, methyl ((1S,2R)-2-((S)-cyano(phenyl)(1-((1-(4-((trifluoromethyl)sulfonyl)phenyl)azetidin-3-yl)methyl)piperidin-4-yl)methyl)cyclopentyl)carbamate]: the results for the IC50 in experiment [2] (setting [3]) and in experiment [2] (setting [4]) were 1.3 µM and 0.19 µM, respectively.

(Values after patent US10899738B2 (THE REGENTS OF THE UNIVERSITY OF MICHIGAN, priority 2016, dated 2021).)
